According to patent publication US10405547B2, “Substituted cyclic amides as herbicides” (FMC Corporation, priority 2015, dated 2019):

Key:
Assay type in all cases: in vivo
corn (Zea mays) = assay: Test A postemergence, corn; details: visual injury, 0 to 100 scale (0 no effect, 100 complete control), approximately 10 days
Outline: (§1)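 Greenhouse test: compounds in solvent with surfactant sprayed onto loam–sand soil after planting (preemergence) or onto plants 2-10 cm at the one- to two-leaf stage (postemergence). Injury visually rated versus untreated controls after about 10 days on a 0-100 scale (100 = complete control).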

[1] = system: pigweed (Amaranthus retroflexus); assay: Test A postemergence, pigweed; details: visual injury, 0 to 100 scale (0 no effect, 100 complete control), approximately 10 days
Outline: as §1

[2] = system: foxtail, giant (Setaria faberii); assay: Test A preemergence, giant foxtail; details: 0 to 100 scale (0 no effect, 100 complete control)
Outline: as §1

[3] = system: ryegrass, Italian (Lolium multiflorum); assay: Test A preemergence, Italian ryegrass; details: 0 to 100 scale (0 no effect, 100 complete control)
Outline: as §1

[4] = system: ducksalad (Heteranthera limosa); assay: Test B flooded paddy test, ducksalad; details: 250 g ai/ha, applied to paddy water, visual rating after 13 to 15 days, scale 0 (no effect) to 100 (complete control)
Source text: (§2) At time of treatment, test pots were flooded to 3 cm above the soil surface, treated by application of test compounds directly to the paddy water, and then maintained at that water depth for the duration of the test. Treated plants and controls were maintained in a greenhouse for 13 to 15 days, after which time all species were compared to controls and visually evaluated. […] A dash (-) response means no test result.

[5] = system: ragweed (common ragweed, Ambrosia elatior); assay: Test A preemergence, ragweed; details: 0 to 100 scale (0 no effect, 100 complete control)
Outline: as §1

[6] = system: wheat (Triticum aestivum); assay: Test A postemergence, wheat; details: visual injury, 0 to 100 scale (0 no effect, 100 complete control), approximately 10 days
Outline: as §1

[7] = system: ragweed (common ragweed, Ambrosia elatior); assay: Test A postemergence, ragweed; details: visual injury, 0 to 100 scale (0 no effect, 100 complete control), approximately 10 days
Outline: as §1

[8] = system: ryegrass, Italian (Lolium multiflorum); assay: Test A postemergence, Italian ryegrass; details: visual injury, 0 to 100 scale (0 no effect, 100 complete control), approximately 10 days
Outline: as §1

[9] = system: blackgrass (Alopecurus myosuroides); assay: Test A postemergence, blackgrass; details: visual injury, 0 to 100 scale (0 no effect, 100 complete control), approximately 10 days
Outline: as §1

[10] = system: galium (catchweed bedstraw, Galium aparine); assay: Test A postemergence, galium; details: visual injury, 0 to 100 scale (0 no effect, 100 complete control), approximately 10 days
Outline: as §1

kochia (Kochia scoparia) = assay: Test A preemergence, kochia; details: 0 to 100 scale (0 no effect, 100 complete control)
Outline: as §1

[11] = system: barnyardgrass (Echinochloa crus-galli); assay: Test A postemergence, barnyardgrass; details: visual injury, 0 to 100 scale (0 no effect, 100 complete control), approximately 10 days
Outline: as §1

[12] = system: barnyardgrass (Echinochloa crus-galli); assay: Test A preemergence, barnyardgrass; details: 0 to 100 scale (0 no effect, 100 complete control)
Outline: as §1

[13] = system: foxtail, giant (Setaria faberii); assay: Test A postemergence, giant foxtail; details: visual injury, 0 to 100 scale (0 no effect, 100 complete control), approximately 10 days
Outline: as §1

[14] = system: sedge, umbrella (small-flower umbrella sedge, Cyperus difformis); assay: Test B flooded paddy test, umbrella sedge; details: 250 g ai/ha, applied to paddy water, visual rating after 13 to 15 days, scale 0 (no effect) to 100 (complete control)
Source text: as §2

[15] = system: pigweed (Amaranthus retroflexus); assay: Test A preemergence, pigweed; details: 0 to 100 scale (0 no effect, 100 complete control)
Outline: as §1

rice (Oryza sativa) = assay: Test B flooded paddy test, rice; details: 250 g ai/ha, applied to paddy water, visual rating after 13 to 15 days, scale 0 (no effect) to 100 (complete control)
Source text: as §2

[16] = system: barnyardgrass (Echinochloa crus-galli); assay: Test B flooded paddy test, barnyardgrass; details: 250 g ai/ha, applied to paddy water, visual rating after 13 to 15 days, scale 0 (no effect) to 100 (complete control)
Source text: as §2

Row | SMILES | Plant response rating, Corn (corn (Zea mays); 125 g ai/ha) | Plant response rating, Corn (corn (Zea mays); 500 g ai/ha) | Plant response rating, Pigweed ([1]; 125 g ai/ha) | Plant response rating, Pigweed ([1]; 500 g ai/ha) | Plant response rating, Foxtail, Giant ([2]; 125 g ai/ha) | Plant response rating, Foxtail, Giant ([2]; 500 g ai/ha) | Plant response rating, Ryegrass, Italian ([3]; 125 g ai/ha) | Plant response rating, Ryegrass, Italian ([3]; 500 g ai/ha) | Plant response rating, Ducksalad (Flood) [4] | Plant response rating, Ragweed ([5]; 125 g ai/ha) | Plant response rating, Ragweed ([5]; 500 g ai/ha) | Plant response rating, Wheat ([6]; 125 g ai/ha) | Plant response rating, Wheat ([6]; 500 g ai/ha) | Plant response rating, Ragweed ([7]; 125 g ai/ha) | Plant response rating, Ragweed ([7]; 500 g ai/ha) | Plant response rating, Ryegrass, Italian ([8]; 125 g ai/ha) | Plant response rating, Ryegrass, Italian ([8]; 500 g ai/ha) | Plant response rating, Blackgrass ([9]; 125 g ai/ha) | Plant response rating, Blackgrass ([9]; 500 g ai/ha) | Plant response rating, Galium ([10]; 125 g ai/ha) | further results
1 | CN1CC(c2cccc(Sc3ccccc3)c2)C(C(=O)Nc2ccccc2F)C1=O (single isomer, unassigned) [Compound 50] | 0 | 20 | 0 | 30 | 90 | 90 | 0 | 0 | 70 | 0 | 30 | 0 | 0 | 0 | 0 | 0 | 0 | 0 | 0 | 0 | Plant response rating, Galium ([10]; 500 g ai/ha): 40; Plant response rating, Kochia (kochia (Kochia scoparia); 125 g ai/ha): 0; Plant response rating, Kochia (kochia (Kochia scoparia); 500 g ai/ha): 30; Plant response rating, Barnyardgrass ([11]; 125 g ai/ha): 0; Plant response rating, Barnyardgrass ([11]; 500 g ai/ha): 30; Plant response rating, Barnyardgrass ([12]; 125 g ai/ha): 0; Plant response rating, Barnyardgrass ([12]; 500 g ai/ha): 40; Plant response rating, Foxtail, Giant ([13]; 125 g ai/ha): 50; Plant response rating, Foxtail, Giant ([13]; 500 g ai/ha): 70; Plant response rating, Sedge, Umbrella (Flood) [14]: 0; Plant response rating, Pigweed ([15]; 125 g ai/ha): 20; Plant response rating, Pigweed ([15]; 500 g ai/ha): 20; Plant response rating, Rice (Flood) (rice (Oryza sativa)): 0; Plant response rating, Barnyardgrass (Flood) [16]: 0
2 | O=C1NCC(c2cccc(Oc3ccc(F)cn3)c2)C1C(=O)Nc1cccc(F)c1F (single isomer, unassigned) [Compound 52] | 50 | 70 | 40 | 60 | 90 | 90 | 30 | 40 | 100 | 40 | 80 | 0 | 40 | 0 | 60 | 30 | 60 | 30 | 40 | 40 | Plant response rating, Galium ([10]; 500 g ai/ha): 60; Plant response rating, Kochia (kochia (Kochia scoparia); 125 g ai/ha): 70; Plant response rating, Kochia (kochia (Kochia scoparia); 500 g ai/ha): 80; Plant response rating, Barnyardgrass ([11]; 125 g ai/ha): 70; Plant response rating, Barnyardgrass ([11]; 500 g ai/ha): 80; Plant response rating, Barnyardgrass ([12]; 125 g ai/ha): 70; Plant response rating, Barnyardgrass ([12]; 500 g ai/ha): 90; Plant response rating, Foxtail, Giant ([13]; 125 g ai/ha): 70; Plant response rating, Foxtail, Giant ([13]; 500 g ai/ha): 90; Plant response rating, Sedge, Umbrella (Flood) [14]: 0; Plant response rating, Pigweed ([15]; 125 g ai/ha): 60; Plant response rating, Pigweed ([15]; 500 g ai/ha): 70; Plant response rating, Rice (Flood) (rice (Oryza sativa)): 0; Plant response rating, Barnyardgrass (Flood) [16]: 40
